Reference: patent US20260345723A1, “Treatments for Opioid-Induced Respiratory Depression” (priority 2023, published 2026)
pIC50: −log10 of the molar value. Where two headings read alike, the source gives them in different places.

Legend:
[1] = test system: neuropathic pain; details: previous research; cited from earlier work
[2] = test system: CCR2; details: cited from earlier work
[3] = test system: CCR8; details: cited from earlier work
[4] = test system: morphine-induced respiratory depression
[5] = test system: CCR2; details: CCR2, monocyte chemotaxis; read-out: half maximal inhibitory concentration IC50; cited from earlier work
[6] = test system: CXCR4; details: cited from earlier work
[7] = test system: sucrose self-administration; assay: Sucrose self-administration (FR and PR); format: in vivo, rat (male Sprague Dawley); details: RAP-103 1 mg/kg IP; P>0.05 vs saline
Excerpt: Adult male Sprague Dawley (226-275 g) were purchased from Taconic Laboratories and maintained on a 12-hour/12-hour light/dark cycle with the lights off at 9:30 a.m. in a temperature- and humidity-controlled animal care facility. For the duration of the experiment, rats were housed two per cage and given unrestricted access to food and water at all times when in the home cage.
Progressive ratio (PR) schedules of drug delivery are used to determine the ‘motivational’ state of an animal and drug reinforcing efficacy. A progressive ratio (PR) schedule requires the subject to perform an increasing number of lever presses for the next successive presentation of a reinforcer (e.g., heroin or sucrose). […] BP is a dependent measure used to quantify the degree to which the subject will work to get the next administration of the drug which serves as a reinforcer in the self-administration paradigm. […]
Subjects were given access to self-administer sucrose pellets for 12-14 d for 2 h each day. […] All responses were recorded using the Med-Associates software. […]
Respiratory depression data were analyzed by two-way ANOVA (RAP-103 pretreatment×morphine treatment) followed by a Bonferroni's multiple comparison test. Physical dependence data were analyzed by a Student's t-test. […] SA PR challenge data were analyzed by a Student's t-test. […]

[8] = format: in vivo, rats and guinea pigs
[9] = format: in vivo, Rhesus macaque (Macaca mulatta)
Method: In non-human primates (rhesus monkeys) RAP-103 was dosed once on Day 1 by intravenous bolus injection at 1 mg/kg and plasma levels determined. […] Drug in plasma after a single IV dose (1 mg/Kg) was still measurable at anticipated therapeutic levels 96 hrs. post-dose in non-human primates as shown in FIG. 10B.

[10] = test system: IBA1 mRNA
[11] = test system: pain pathways; details: cited from earlier work
[12] = test system: CCR5
[13] = test system: tyrosine hydroxylase (TH); assay: TH protein levels in mesolimbic pathway, morphine abstinence (Western blot); format: in vivo, rat; details: RAP-103 + morphine, vs drug-naïve (P<0.05) and morphine only (P<0.01)
Method: For 10 d, rats were given two injections during the dark cycle. One injection (RAP-103 [1 mg/kg] or saline) was delivered IP, and 5 min later the second injection (morphine [5 mg/kg] or saline) was given SC. Brain tissue was collected 24 h after the last morphine or saline injection for protein analysis of chemokine and opioid markers in the ventral tegmental area (VTA), nucleus accumbens (NAC) and prefrontal cortex (PFC).
For immunoblotting experiments, tissue lysates were obtained using RIPA buffer, and were then homogenized. Samples were centrifuged for 15 minutes at 12,000 g. Supernatant were transferred to new tubes. […] Immunoreactive bands were quantified by Image Studio (Licor Ver 2.0) and normalized to the bands of GAPDH. […]
Respiratory depression data were analyzed by two-way ANOVA (RAP-103 pretreatment×morphine treatment) followed by a Bonferroni's multiple comparison test. Physical dependence data were analyzed by a Student's t-test. Self-administration (SA) time-course data for heroin and sucrose were analyzed by two-way ANOVA (RAP-103 treatment x day) followed by a Bonferroni's multiple comparison test. SA PR challenge data were analyzed by a Student's t-test. Protein and mRNA data were analyzed by two-way ANOVA (RAP-103 pretreatment x morphine treatment) followed by a Newman-Keuls post-hoc analysis. […]

[14] = RAP-103 1, 3 mg/kg IP in morphine-naïve rats vs saline, P>0.05
[15] = RAP-103 1 or 3 mg/kg IP 30 min before morphine 5 mg/kg SC, 60 min
[16] = RAP-103 only vs drug-naïve, P>0.05

**Q.** Which mechanical allodynia [1] does the source give for D-Thr-D-Thr-D-Asn-D-Tyr-D-Thr [RAP-103] here?
**A.** attenuate

**Q.** What about the thermal hyperalgesia [1] of the same substance?
**A.** attenuate

**Q.** And the “inhibition of chemokine ligand binding, CCR2” value [2]?
**A.** at least partially inhibits

**Q.** What about the “inhibition of chemokine ligand binding, CCR8” value [3] of the same substance?
**A.** at least partially inhibits

**Q.** And the respiratory rate ([4]; RAP-103 1 mg/kg IP before morphine 5 mg/kg SC)?
**A.** abolished

**Q.** What about the cumulative respiratory rate ([4]; RAP-103 3 mg/kg IP before morphine 5 mg/kg SC, 60 min, P<0.01) of the same substance?
**A.** normalized the morphine-induced increase in respiratory rate

**Q.** What about the “SpO2, RAP-103 by itself” value [4, 14] of the same substance?
**A.** did not produce effects on SpO2

**Q.** And the “respiratory rate, RAP-103 by itself” value [4, 14]?
**A.** did not produce effects on respiratory rate

**Q.** And the “oxygen saturation (FIGS. 1A-1B)” value [4, 15]?
**A.** prevented the deficit in oxygen saturation

**Q.** And the “respiratory rate (FIGS. 2A-2B)” value [4, 15]?
**A.** prevented the increase in respiratory rate

**Q.** What about the pIC50 [5] of the same substance?
**A.** 11.38

**Q.** And the “inhibition of chemokine ligand binding, CXCR4” value [6]?
**A.** at least partially inhibits

**Q.** And the “sucrose PR breakpoints” value [7]?
**A.** not significantly different

**Q.** What about the “sucrose-taking (FR-1 SA)” value [7] of the same substance?
**A.** not significantly different

**Q.** And the “persistence at therapeutic levels in brain” value ([8]; IV or oral gavage, rats and guinea pigs (FIG. 10A))?
**A.** at least 24 hrs

**Q.** And the “brain entry compared to plasma levels” value ([8]; in vivo)?
**A.** preferentially enters the brain

**Q.** And the “AUC 0-T, male vs female” value ([9]; intravenous bolus 1 mg/kg)?
**A.** comparable in male and female monkeys

**Q.** What about the “Cmax, male vs female” value ([9]; intravenous bolus 1 mg/kg) of the same substance?
**A.** comparable in male and female monkeys

**Q.** What about the absolute bioavailability ([9]; males, 1 mg/kg, rhesus monkeys) of the same substance?
**A.** 89%

**Q.** What about the oral bioavailability ([9]; non-human primates (Rhesus macaque), 1 mg/kg) of the same substance?
**A.** 88%

**Q.** And the oral bioavailability ([9]; primates, 1 mg/kg)?
**A.** > 88%

**Q.** And the “time drug in plasma still measurable at anticipated therapeutic levels” value ([9]; single IV dose 1 mg/kg, post-dose)?
**A.** ≥ 96 h

**Q.** What about the “IBA1 mRNA levels, NAC” value ([10]; RAP-103 + morphine vs drug-naïve and morphine by itself, P<0.01) of the same substance?
**A.** significantly enhanced

**Q.** And the “IBA1 mRNA, PFC” value ([10]; RAP-103/morphine exposure, P>0.05)?
**A.** significant changes in GFAP or IBA1 were not detected

**Q.** And the “IBA1 mRNA levels, VTA” value ([10]; RAP-103 pretreatment vs drug-naïve, P<0.05)?
**A.** significantly increased IBA1 mRNA levels

**Q.** And the “microglial mRNA levels, VTA and NAC” value ([10]; morphine-naïve and morphine-abstinent rats)?
**A.** enhanced microglial mRNA levels

**Q.** What about the monocyte infiltration [11] of the same substance?
**A.** reduces

**Q.** What about the spinal microglial activation [11] of the same substance?
**A.** reduces

**Q.** And the “CCR5 protein levels, NAC” value [12, 16]?
**A.** did not display significantly different levels

**Q.** And the “CCR5 protein levels, VTA” value [12, 16]?
**A.** not significantly different

**Q.** What about the “CCR5 protein levels, NAC” value ([12]; RAP-103 pretreatment 1 mg/kg IP + morphine, P<0.05) of the same substance?
**A.** normalized morphine-induced deficits in CCR5 levels

**Q.** And the “CCR5 protein levels, PFC” value ([12]; rats receiving RAP-103 vs drug-naïve, P<0.05)?
**A.** lower CCR5 levels

**Q.** What about the “TH protein levels, PFC” value [13] of the same substance?
**A.** significantly elevated
